Holding throughout (assay): CD titration with propionylphosphinate
Common to all, as to format: binding

For experiment [1], the target named is T1, YPDC (Saccharomyces cerevisiae, UniProt P06169).
T1 sequence (P06169 1-563): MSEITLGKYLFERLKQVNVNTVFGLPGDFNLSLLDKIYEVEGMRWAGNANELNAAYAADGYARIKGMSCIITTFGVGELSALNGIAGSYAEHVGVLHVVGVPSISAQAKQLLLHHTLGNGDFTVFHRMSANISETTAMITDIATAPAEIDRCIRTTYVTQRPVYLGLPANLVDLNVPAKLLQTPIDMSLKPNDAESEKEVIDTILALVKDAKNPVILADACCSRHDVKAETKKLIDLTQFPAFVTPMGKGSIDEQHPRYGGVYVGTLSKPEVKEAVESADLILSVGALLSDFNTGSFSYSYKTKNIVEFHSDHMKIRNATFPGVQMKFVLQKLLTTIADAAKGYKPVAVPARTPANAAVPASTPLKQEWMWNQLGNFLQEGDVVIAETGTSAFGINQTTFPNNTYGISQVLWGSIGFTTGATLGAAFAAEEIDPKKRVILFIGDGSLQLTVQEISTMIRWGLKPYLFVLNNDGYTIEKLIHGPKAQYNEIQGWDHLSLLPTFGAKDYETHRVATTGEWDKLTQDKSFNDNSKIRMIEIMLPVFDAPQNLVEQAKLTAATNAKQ
The settings on record: for Kd: pH 6.0, 25 °C.

The target in experiment [2] is T2, E91D YPDC (Saccharomyces cerevisiae, UniProt P06169, E91D).
T2 sequence (P06169 1-563 E91D): T1 sequence (P06169 1-563) with E91D
Particulars: for Kd: pH 6.0, 25 °C.

The target of experiment [3] is T3, C221E/C222A YPDC (Saccharomyces cerevisiae, UniProt P06169, C221E/C222A).
T3 sequence (P06169 1-563 C221E/C222A): T1 sequence (P06169 1-563) with C221E, C222A
The settings on record: IP form of PPThDP.

Experiment [4] addresses T4, E51D YPDC (Saccharomyces cerevisiae, UniProt P06169, E51D).
T4 sequence (P06169 1-563 E51D): T1 sequence (P06169 1-563) with E51D

Experiment [5] deals with T5, E477Q YPDC (Saccharomyces cerevisiae, UniProt P06169, E477Q).
T5 sequence (P06169 1-563 E477Q): T1 sequence (P06169 1-563) with E477Q
Particulars: pH 6.0, 25 °C.

In experiment [6] the target is T6, D28A YPDC (Saccharomyces cerevisiae, UniProt P06169, D28A).
T6 sequence (P06169 1-563 D28A): T1 sequence (P06169 1-563) with D28A
The settings on record: pH 6.0, 25 °C.

[7] abbreviates: read-out: Kd^app (IP), 1′,4′-iminopyrimidine tautomer of PPThDP, CD band at 297 nm.
Where [8] appears, read: read-out: Kd^app (MC), Michaelis complex, negative CD band at 330 nm.

Substitutions are numbered along the chain they refer to. Where two headings read alike, the source gives them in different places.

`CCC(=O)[PH](=O)[O-].[Na+]` [PP, sodium propionylphosphinate]: the “CD max (IP)” value was 15.8 ± 0.79 (IP) mdeg in experiment [1] (IP form of PPThDP, 297 nm); 7.6 ± 0.63 (IP) mdeg in experiment [2] (IP form of PPThDP, 297 nm); 4.7 ± 0.77 (IP) mdeg in experiment [3]; 21.6 ± 0.54 (IP) mdeg in experiment [4] (IP form of PPThDP). The Kd in experiment [1] (setting [7]) was 7.82 ± 0.55 mM; in experiment [1] (setting [8]), 9.1 ± 0.45 mM; in experiment [2] (setting [7]), 7.02 ± 1.34 mM; in experiment [2] (setting [8]) it was 8.02 ± 0.92 mM; in experiment [4] (read-out: Kd^app (IP), 1′,4′-iminopyrimidine tautomer of PPThDP, CD band at 297 nm, pH 6.0, 25 °C) it was 13.6 ± 0.35 mM. In addition, the “CD max (MC)” value in experiment [2] (Michaelis complex, 330 nm) is listed as −2.85 ± 0.18 (MC) mdeg. Besides, the “Kd^app” value in experiment [5] and in experiment [6] was “Not detected” each time.

The values above are taken from PMC3295232 (Journal of the American Chemical Society, 2012).
